Data as given in patent US20160221932A1, “Methods and Uses of Melatonin Ligands” (priority 2013, published 2016).
Entries after “also recorded” stand apart in the source; their conditions may differ.

Tests used:
[1] = target: T1, human-cloned MT2 receptors (Homo sapiens, UniProt P49286); test: cAMP assay in CHO cells expressing human-cloned MT2 (functional activity); type: cell-based; settings: CHO cells
T1 construct: expressed in transfected cells
T1 sequence (P49286 1-362): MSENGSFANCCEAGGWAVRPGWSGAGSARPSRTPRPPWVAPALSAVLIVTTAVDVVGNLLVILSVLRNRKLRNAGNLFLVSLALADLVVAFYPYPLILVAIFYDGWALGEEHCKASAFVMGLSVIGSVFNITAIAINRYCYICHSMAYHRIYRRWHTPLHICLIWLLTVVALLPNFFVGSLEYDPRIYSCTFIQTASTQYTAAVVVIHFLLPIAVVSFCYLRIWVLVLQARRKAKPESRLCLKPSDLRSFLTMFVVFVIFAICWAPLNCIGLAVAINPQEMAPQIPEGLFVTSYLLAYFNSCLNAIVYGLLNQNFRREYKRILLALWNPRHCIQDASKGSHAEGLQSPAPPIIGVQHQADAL

Wistar rats = test: hot plate test; type: in vivo, rat; settings: for withdrawal temperature compared to untreated rats: summary statement, dose not stated
Protocol: Animals: Wistar rats (150-250 g, Charles-River Saint-Constant, Quebec, Canada) were used for the formalin test, hot plate test and L5-L6 spinal nerves ligature model. The animals were housed at constant room temperature and humidity under a 12 h light/dark cycle (lights on at 7 AM). Food and water were available ad libitum. Hot plate test: The hot-plate test was performed by using an electronically controlled hot-plate (Ugo Basile, Italy). The initial temperature was 38° C. A near linear increase in temperature (3° C. per min) was obtained by turning the heating adjustment to maximum. The temperature at which the fast hindpaw lick occurred was recorded as the nociceptive end-point. If no hindpaw lick was observed, the test was terminated at 52° C., and this cut-off value was used in the analysis. The plate was wiped with a wet cloth, and a fan located behind the plate allowed rapid cooling so that testing could be conducted every 7.5 min. Statistical Analysis: Data analysis was done using SigmaPlot 12 (Systat Software, Inc.). Two-way ANOVA for repeated measures was used to analyze data from L5-L6 models using treatments (between) and testing time (within) as factors. One-way ANOVA was used to analyze AUC in the L5-L6 spinal nerves ligation model. One-way ANOVA was used for formalin and hot-plate tests. Post-hoc analyses were performed using Bonferroni t-test comparisons or Student-Newman-Keuls (SNK) test. All data are expressed as mean±Standard Error of the Mean (SEM). P<0.05 was considered significant.

SNI rats = test: spared nerve injury (SNI) model, dynamic plantar aesthesiometer; type: in vivo, rat; settings: for mechanical withdrawal threshold compared to untreated rats: summary statement, dose not stated
Protocol: Spared nerve injury (SNI) of the sciatic nerve and measurement of allodynia with the dynamic plantar aesthesiometer. SNI was performed according to the method of Decosterd and Woolf (2000). Rats were anaesthetized with sodium pentobarbital (50 mg/kg i.p.). The sciatic nerve was exposed at mid-thigh level […] to the trifurcation and freed of connective tissue; the three peripheral branches (sural, common peroneal, and tibial nerves) of the sciatic nerve were exposed without stretching nerve structures. Both tibial and common peroneal nerves were ligated and transected together. The sham procedure consisted of the same surgery without ligation and transection of the nerves. Fourteen days after SNI, mechanical allodynia was measured using the dynamic plantar aesthesiometer (Ugo Basile, Varese, Italy). Each rat was placed and allowed to move freely in one of the two compartments of the enclosure positioned on a metal grid surface. A mechanical stimulus was delivered to the plantar surface of the rat's hind paw through the metal grid by a steel filament (Von Frey-type), connected to a movable touch-stimulator unit exerting an increasing force of 3 g per second. The force inducing paw withdrawal was recorded to the nearest 0.1 g. Nociceptive responses for mechanical sensitivity (mechanical withdrawal threshold) were measured in grams before and after vehicle or drug administration by an experimenter blind to the treatments. A single trial at each time point was performed on the ipsilateral hind paw to SNI surgery for each rat. Nociceptive responses for mechanical sensitivity were expressed as mean±SEM (g). Groups of 6-7 rats per treatment were used, with each animal being used for one treatment only.
Statistical Analysis: Data analysis was done using SigmaPlot 12 (Systat Software, Inc.). Two-way ANOVA for repeated measures was used to analyze data from L5-L6 models using treatments (between) and testing time (within) as factors. One-way ANOVA was used to analyze AUC in the L5-L6 spinal nerves ligation model. One-way ANOVA was used for formalin and hot-plate tests. Post-hoc analyses were performed using Bonferroni t-test comparisons or Student-Newman-Keuls (SNK) test. All data are expressed as mean±Standard Error of the Mean (SEM). P<0.05 was considered significant.

[2] = 20 mg/kg s.c., 30 min post treatment
[3] = 20 mg/kg s.c., 1 hour post treatment
[4] = 20 mg/kg s.c., 4 hours post treatment
[5] = 40 mg/kg, 1 hour post treatment
[6] = 40 mg/kg, 4 hours post treatment

Row | SMILES | activity for the MLT receptor subtype MT2 (in words) [1] | withdrawal temperature vs vehicle (Wistar rats; [2]) | withdrawal temperature vs vehicle (Wistar rats; [3]) | withdrawal temperature vs vehicle (Wistar rats; [4]) | withdrawal temperature vs vehicle (Wistar rats; [5]) | withdrawal temperature vs vehicle (Wistar rats; [6]) | withdrawal temperature compared to untreated rats (Wistar rats) | reduction of the mechanical allodynia (SNI rats; 20 mg/kg s.c.) | reduction of the mechanical allodynia (SNI rats; 40 mg/kg s.c.) | mechanical withdrawal threshold compared to untreated rats (SNI rats) | effect on mechanical allodynia compared with GBP 100 mg/kg, MLT 150 mg/kg and VEH (SNI rats; 20 mg/kg s.c.) | extent of reversal of mechanical allodynia (SNI rats; 20 and 40 mg/Kg s.c.)
1 | COc1cccc(N(CCNC(C)=O)c2ccccc2)c1 [5b, N-{2-[(3-Methoxyphenyl)-phenylamino]ethyl}acetamide] | partial agonist activity | significant increase of the withdrawal temperature | increase of withdrawal temperature; also recorded: increased the withdrawal temperature | significant increase of withdrawal temperature; also recorded: increased the withdrawal temperature | increase of withdrawal temperature | significant increase of withdrawal temperature | significant increase in withdrawal temperature | significant reduction of the mechanical allodynia | significant reduction of the mechanical allodynia | significant decrease in mechanical withdrawal threshold | – | –
2 | CC(=O)NCCN(c1ccc(F)cc1)c1cccc(Br)c1 [5p, N-{2-[(3-Bromophenyl)-4-fluorophenylamino]ethyl}acetamide] | partial agonist activity | significant increase of the withdrawal temperature | increase of withdrawal temperature; also recorded: increased the withdrawal temperature | significant increase of withdrawal temperature; also recorded: increased the withdrawal temperature | increase of withdrawal temperature | significant increase of withdrawal temperature | significant increase in withdrawal temperature | significant reduction of the mechanical allodynia | significant reduction of the mechanical allodynia | significant decrease in mechanical withdrawal threshold | greater than those produced by GBP | reversed almost completely mechanical allodynia
